From patent publication US20060041013A1, “Alanosine formulations and methods of use” (priority 2004, published 2006)
Values joined by “and” are separate entries in the source; they are usually repeats but may differ in a detail not shown here. Equal values may be shown once. Read-outs that look alike come from different tables or passages of the source.

What was measured:
physchem = format: physicochemical
Protocol: The solution was stirred on a stir plate at room temperature and the pH was adjusted by adding 20 microliter (μL) aliquots of 1N NaOH. After the addition of each aliquot, the resulting pH was measured potentiometrically and the results were recorded. The results of the titration appear in FIG. 1. The solution was also visually inspected during the course of the titration experiment to observe full dissolution of the alanosine.

[1] = Chirality analysis: conversion of L-alanosine to D-alanosine (chiral HPLC); format: physicochemical
Protocol: The following HPLC procedure was used to separate the L- and D-enantiomers of alanosine. The HPLC system (Agilent 1100) employed a 4.6 mm×150 mm column (Phenomenex) containing 5 μm particles (Chirex 3126, (D)-penicillamine) as the stationary phase. The system was equipped with both UV and polarimeter detectors. The UV detector was set to 254 nm to monitor products being eluted from the column, while the polarimeter detector was set to 670 nm. The eluent was 2 mM CuSO4/MeOH 70-30. The flow rate was 1.7 mL/min. at a pressure of 200 bar. For each run, a 100 μL sample containing 0.5 mg/mL in 2 mM CuSO4 was injected onto the column. […] To reverse the elution order, (L)-penicillamine could be used.

A-427 [2] = experiment: Intracellular ATP levels (Cell-Titer Glow); format: cell-based; conditions: Homo sapiens, 72 h; A-427, NSCLC, MTAP Positive; 3 day treatment
Protocol: (§1) MTAP status was determined using immunoblot analyses and correlated with the ability of an MTA analog to rescue ATP levels in cell lines treated with SDX-102. ATP levels were measured using Cell-Titer Glow™ (Promega) after a 3 day treatment with titrated concentrations of either SDX-102 or pemetrexed.
(§2) ATP values measured using Cell-Titer Glow™ (Promega) after 3 days exposure to the MTA analog. Solid lines in FIG. 8 represent the effect of titrations of SDX-102 from 0.05 μM-20 μM (FIG. 8A) or pemetrexed from 0.01 μM-5 μM (FIG. 8B) on cellular ATP levels. The dotted lines represent the effect of a single concentration of SDX-102 (10 μM) or pemetrexed (2.5 μM) with a titration of an MTA analog from 0.1 μM-50 μM.

HS-766T [3] = experiment: Intracellular ATP levels (Cell-Titer Glow); format: cell-based; conditions: Hs766T, 72 h; HS-766T, Pancreatic, MTAP Positive; 3 day treatment
Protocol: as §1, §2

NCI-H226 [4] = experiment: Intracellular ATP levels (Cell-Titer Glow); format: cell-based; conditions: Homo sapiens, 72 h; NCI-H226, Mesothelioma, MTAP Positive; 3 day treatment
Protocol: as §1, §2

HS-766T [5] = experiment: Cell viability MTT assay (Example 3); format: cell-based; conditions: Hs766T, 72 h, Pancreatic, MTAP Positive, 3 days
[6] = Cell viability MTT assay (Example 3); format: cell-based; conditions: 72 h; A-594, NSCLC, MTAP Negative; 3 days
A-427 [7] = experiment: Cell viability MTT assay (Example 3); format: cell-based; conditions: Homo sapiens, 72 h; A-427, NSCLC, MTAP Positive; 3 days
NCI-H2452 [8] = experiment: Cell viability MTT assay (Example 3); format: cell-based; conditions: Homo sapiens, 72 h; NCI-H2452, Mesothelioma, MTAP Negative; 3 days
NCI-H226 [9] = experiment: Cell viability MTT assay (Example 3); format: cell-based; conditions: Homo sapiens, 72 h; NCI-H226, Mesothelioma, MTAP Positive; 3 days
NCI-H292 = experiment: Docetaxel, 5-FU, SDX-102 alone or combined, MTT/MTS cytotoxicity (Example 4); format: cell-based; conditions: Homo sapiens; NCI-H292, NSCLC, single agent, MTT 72 hours
NCI-H322M = experiment: as above; format: cell-based; conditions: Homo sapiens, NSCLC, single agent, MTT 72 hours
PANC-1 = experiment: as above; format: cell-based; conditions: Homo sapiens; PANC-1, Pancreatic, single agent, MTT 72 hours
BX-PC3 = experiment: as above; format: cell-based; conditions: Homo sapiens, BXPC-3; BX-PC3, Pancreatic, single agent, MTT 72 hours
NCI-H2452 [10] = experiment: as above; format: cell-based; conditions: Homo sapiens; NCI-H2452, Mesothelioma, single agent, MTT 72 hours
H-Meso-1 = experiment: Mesothelioma xenograft model (H-Meso-1) in SCID mice; format: in vivo; conditions: thirty-one days following treatment; docetaxel 10 mg/kg intraperitoneally daily Mon-Fri, SDX-102 50 mg/kg osmotic pump; start 100 mm^3; control 1272
[11] = 6 months, 20 mg/mL, pH 8.5
Protocol: Each solution was divided into 5 mL aliquots and placed in 6 mL vials sealed with Teflon-faced screw caps (VWR Scientific, catalogue No. 66011-880). Vials of each solution were placed at five different temperatures, −20° C., 5° C., 25° C., 40° C., and 60° C., and aliquots were analyzed at various time points to determine stability.

mice = conditions: cited from earlier work
[12] = humans, intravenous, biphasic plasma clearance; times approximate; cited from earlier work
[13] = cited from earlier work
[14] = t1 yr., pH 7.5, 25° C., listed as L
[15] = t1 yr., pH 8.5, 25° C., listed as L
[16] = t6 mo., pH 8.5, 25° C., listed as L

NC(CN(O)N=O)C(=O)O [L-alanosine, L(−)-2-amino-3-nitrosohydroxylaminopropionic acid]
solubility in water (physchem): poor solubility | pH that must be exceeded for full dissolution (physchem; free base, approx. 20 mg/mL in water): exceeded 6.2 | pKa (physchem; pKa (first)): ~5.5 | pKa (physchem; pKa (second)): ~8.5 | conversion to D-alanosine ([1]; after one year at 5° C., pH 7.5 or 8.5): no conversion to D-alanosine | conversion to D-alanosine at pH 8.5 compared to pH 7.5 ([1]; storage at 25° C.): 5-10 times | % Total Peak Area L ([1]; t0): 100% | % Total Peak Area L ([1]; t1 yr., pH 7.5, 5° C.): 100% | % Total Peak Area D [1, 14]: 0.99% and 0.78% | % Total Peak Area L [1, 14]: 99.01% and 99.22% | % Total Peak Area L ([1]; t1 yr., pH 8.5, 5° C.): 100% | % Total Peak Area D [1, 15]: 4.45% and 4.56% | % Total Peak Area L [1, 15]: 95.55% and 95.44% | % Total Peak Area L ([1]; t6 mo., pH 8.5, 5° C.): 100% | % Total Peak Area D [1, 16]: 2.03% and 2.04% | % Total Peak Area L [1, 16]: 97.97% and 97.96% | IC50 (A-427 [2]): 1500 nM | IC50 (HS-766T [3]): 2000 nM | IC50 (NCI-H226 [4]): 400 nM | IC50 (HS-766T [5]): > 20000 nM | IC50 [6]: 400 nM | IC50 (A-427 [7]): 3300 nM | IC50 (NCI-H2452 [8]): 500 nM | IC50 (NCI-H226 [9]): 1500 nM | IC50 (NCI-H292): 200 ± 60 nM | IC50 (NCI-H322M): 6000 ± 1000 nM | IC50 (PANC-1): 10000 ± 5000 nM | IC50 (BX-PC3): 3000 ± 1000 nM | IC50 (NCI-H2452 [10]): 1000 ± 500 nM | mean tumor volume (H-Meso-1): 1035 mm^3 | stability versus freshly reconstituted lyophilizate (HPLC) [11]: as stable after storage at 5 °C for six months as a composition prepared by freshly reconstituting lyophilized L-alanosine | LD50 (mice; administered intraperitoneally): 600 mg/kg | LD50 (mice; given intravenously): 300 mg/kg | t1/2α [12]: ~14 min | t1/2β [12]: ~99 min | single bolus dose at which renal toxicity reported ([13]; human, in vivo): above 4 g/m^2 body weight | dose-limiting toxicity ([13]; phase II, adults with acute non-lymphoblastic leukemia, continuous infusion about 125 mg/m^2 for 5 days): mucositis
